# Assays:
# MT-3 receptor = biological target: T1, MT-3 receptor (Mesocricetus auratus, UniProt A0ABM2YAB8); test: 125I-melatonin binding in hamster brain membranes, MT-3
# T1 construct: from tissue; host or cells: hamster brain membranes
# T1 sequence (A0ABM2YAB8 1-231): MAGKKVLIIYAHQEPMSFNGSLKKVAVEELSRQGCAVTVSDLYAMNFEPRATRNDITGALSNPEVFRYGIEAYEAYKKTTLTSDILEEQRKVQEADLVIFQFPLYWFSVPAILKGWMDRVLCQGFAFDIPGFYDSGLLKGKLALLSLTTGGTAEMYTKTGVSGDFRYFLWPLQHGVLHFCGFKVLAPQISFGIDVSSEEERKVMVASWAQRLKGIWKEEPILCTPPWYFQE
# Procedure: Aliquots of suspended membranes of human recombinant CHP-K1 (Chinese hamster ovary) cells stably expressing human melatonin-1 or melatonin-2 (MT-1 or MT-2) receptors or of hamster brain (MT-3) were incubated at 25° C. with 0.05 nM ^125I-melatonin in buffer (25 mM HEPES, pH 7.4, 5 mM MgCl2, 1 mM CaCl2, 0.5% BSA) or with 0.1 nM for MT-3 alone or in the presence of 1 nM, 10 nM, 0.1 μM, 1 μM and 10 μM of test substances N-[2-(5-methoxy-indol-3-yl)-ethyl]-commenamide, N-[2-(5-methoxy-indol-3-yl)-ethyl]-comanilamide, N-[2-(5-methoxy-indol-3-yl)-ethyl]-coumalylamide, N-[2-(5-methoxy-indol-3-yl)-ethyl]-2-methoxy-commenamide, N-[2-(5-methoxy-indol-3-yl)-ethyl]-chelidonamide, O-[2-(5-methoxy-indol-3-yl)-ethyl]-comenic ester, N-[2-(5-methoxy-indol-3-yl)-ethyl]-2-Pyrone-6-carboxamide and N-[2-(2-bromo-5-methoxy-indol-3-yl)-ethyl]-coumalylamide for 3 hours for MT-1, 4 hours for MT-2 and 30 min for MT-3. The binding reaction was terminated and the membranes were washed with 4 ml of ice-cold HEPES buffer by vacuum filtration. Membranes were then collected, and the filters containing the bound ^125I-melatonin were assayed for the amount of radioactivity in a […]. Non-specific binding was evaluated using a reaction with 1 μM 6-chloromelatonin (MT-1 and MT-2) or 30 μM melatonin (MT-3).
# CD1 mice = test: Motimeter assay (motor activity and rearing); format: in vivo; conditions: 100 mg/kg i.p.
# Procedure: Mice were starved for 16 hrs before treatment. Male CD1 mice, weighing 25-30 g, were treated intraperitoneally with melatonin, N-[2-(5-methoxy-indol-3-yl)-ethyl]-comanilamide or N-[2-(5-methoxy-indol-3-yl)-ethyl]-commenamide in a dose of 100 mg/kg. The horizontal (i.e. locomotion) and vertical (i.e. rearing) movements were measured for 5 minutes two times, 30 and 60 min after treatment. Eight mice/group were used. The 4-channel activity meter is a square-shaped frame containing transparent infra-red permeable acrylic cages. The frames feature two pairs of light-beam strips for measuring horizontal movements, and two pairs for measuring rearing. Each strip is equipped with 16 infra-red sensors.
# 3T3-L1 adipocytes = test: 2-[3H]-deoxy-d-glucose uptake in FFA-treated 3T3-L1 adipocyte model; format: cell-based
# Procedure: Adipocytes were glucose-starved for 1 h in Hepes-salt buffer containing 2% FFA-free BSA. FFA (free fatty acids) were then added to the cells at the indicated concentrations (300 μM) for the indicated times (3 h). 10 min before the end of the FFA treatment, the cells were stimulated with insulin (20 nM)/melatonin (10 nM)/test compounds (10 nM) at 37° C. 2-[^3H]-deoxy-d-glucose at 1 μCi/mL and 0.1 mM unlabeled 2-deoxyglucose in KRP-HEPES buffer was added and cells were incubated for 10 min at room temperature. Non-specific glucose uptake was measured by parallel incubations in the presence of 10 μM cytochalasin B, which blocks transporter-mediated glucose uptake, and was subtracted from total uptake in each assay. Cells were then washed three times with ice-cold phosphate buffered saline (PBS) and solubilized in 1M NaOH for 20 minutes. The sample was then counted using a scintillation counter. 2-[^3H]-deoxy-d-glucose uptake was assayed in triplicates for each condition in at least 3 independent experiments. 2-[^3H]-deoxy-d-glucose uptake (counts per minute-cpm) are presented as mean+SE of triplicates in a representative experiment or results of three independent experiments. ANOVA test was used with significance of P<0.05 (Table 7).
# PC12 cells = test: Glutamate-induced loss of cell viability in PC12 cells (MTT); format: cell-based; conditions: 1 uM, without glutamate
# Procedure: For the cell viability assays, 24 h after seeding in 96-well plates, the cultures were pretreated with N-[2-(5-methoxy-indol-3-yl)-ethyl]-comanilamide (100 pm, 1 nM, 10 nM, 100 nM, 1 uM and 10 uM) or melatonin (1 uM) for 0 h before exposure to 4 mM glutamate. After 24 h incubation, cellular viability was evaluated by MTT assay.
# PC12 cell viability was determined by the conventional 3-(4,5-dimethylthiazol-2-yl)-2,5-diphenyltetrazolium bromide (MTT) assay. PC12 cells were treated with MTT solution (0.5 mg/ml) and were then incubated at 37° C. for 4 hrs. The medium was removed and 150 μl DMSO/well was added to dissolve formazan. The absorbance at 570 nm was recorded using an enzyme-linked immunosorbent assay reader and the percentage of cell growth inhibition was calculated as follows: Cell viability (%)=A570 (treatment)/A570 (control)×100.
smiles,measurement,setting,value
"COc1ccc2[nH]cc(CCNC(C)=O)c2c1 [Melatonin, N-acetyl-5-methoxy-tryptamine, reference compound]",IC50,"MT-3 receptor; 0.1 nM 125I-melatonin, 30 min, read-out: MT-3 receptor binding IC50",47 nM
same,Ki,"MT-3 receptor; 0.1 nM 125I-melatonin, 30 min, read-out: MT-3 receptor binding KI",46 nM
same,inhibition at 10 µM,MT-3 receptor; read-out: MT-3 receptor binding % inhibition by 10 μM,100%
same,effect on motor activity and rearing,CD1 mice; 30-35 min and 60-65 min after treatment,did not change significantly the motor activity and rearing
same,motor activity (horizontal movement) changes (%) 30 min,"CD1 mice; 30 min, vs vehicle",−26.5%
same,motor activity (horizontal movement) 30 min Means ± SE,"CD1 mice; 30 min after treatment, 5 min measurement",316.1 ± 45.5
same,motor activity (horizontal movement) changes (%) 60 min,"CD1 mice; 60 min, vs vehicle",−19.0%
same,motor activity (horizontal movement) 60 min Means ± SE,"CD1 mice; 60 min after treatment, 5 min measurement",256.1 ± 27.3
same,effect on glucose transport in FFA-treated adipocytes,3T3-L1 adipocytes; FFA-impaired insulin signaling,improved glucose transport
same,2-[3H]-deoxy-d-glucose uptake (cpm),3T3-L1 adipocytes; Insulin 20 nM + FFA 300 μM (3 h) + substance 10 nM,1489 cpm
same,effect on cell viability without glutamate,PC12 cells,had no effect on the cell viability

# From patent publication US9101613B2, “Methods for treating neurological disease” (Neurim Pharmaceuticals (1991) Ltd., priority 2006, dated 2015)
